A short description of series [1]: Dissolution measurement assay (apparent solubility) in FeSSIF, pH 5. Conditions: for Conc (mg/L) 5 min: 5 minutes dissolution; for Conc (mg/L) 90 min: 90 minutes dissolution. It is filed as physicochemical.
Description: The method consists of adding the wished amount of powder of hybrid nanoparticles into a glass vial and then pouring in it the appropriate medium (typically FaSSIF, FeSSIF or SGF). The medium was prepared in accordance with the manufacturer's instructions. The amount of powder added depends on the wished “total PKI concentration”. […] For other experiments, the drug load was first estimated by HPLC and the amount of powder to obtain the drug concentration was calculated.
Typically, the powder was added in a 8 mL glass bottle and 7 mL of solution was added (typically FaSSIF, FeSSIF or SGF). The glass bottle was put on a shaker (approximately 1 rotation per minute) for dissolution. Samples of 500 μl where taken after different times, and subsequently centrifuged at approximately 15000 g for 3 minutes. The resulting supernatant was then analyzed by HPLC (C18 column Eclipse, 4.6 mm×15 cm, 1 mL/min, detection at 254-400 nM. Generally samples were taken after 5, 30 and 90 min and eventually 150 min.
A number of experiments were carried out, wherein nilotinib base or nilotinib HCl represented the protein kinase inhibitor. The experiments were carried out by measuring concentration of solubilized PKI (mg/L) after 5, 30 and 90 minutes dissolution in a solution at about pH 6.5, namely FaSSIF (Fasted State Simulated Intestinal Fluid). […] Samples of the solution were taken at various time intervals and the amount of protein kinase inhibitor was measured by the dissolution measurement assay described above.
Series [2] is described as follows: In vivo measurement of plasma levels of nilotinib after oral (or iv) administration, neutralized or acidified stomach. Further details: species or system beagle dogs. Conditions: constant rate IV infusion of 1 mg/kg, solution 0.2 mg/mL in 10% HPβCD, male dogs, Mean±SD. Here is the method: Outliers were calculated and excluded based on if one value is a significant outlier from the rest at 95% confidence intervals (alpha=5%) according to Grubb's test. The critical Z value for the Grubb's test at the 95% confidence interval with n=4 is 1.48. Z=(Mean−Questionable value)/SD

The mark [3] stands for this setting: concentration of nilotinib HCl, FeSSIF solution (pH 5).
Where [4] appears, read: concentration of erlotinib HCl, FeSSIF solution (pH 5).

These results are taken from patent US20140378454A1, “NOVEL METHODS” (XSPRAY MICROPARTICLES AB, priority 2012, published 2014).

Counter-ions that a name gives are not always drawn.

Consider `Cc1cn(-c2cc(NC(=O)c3ccc(C)c(Nc4nccc(-c5cccnc5)n4)c3)cc(C(F)(F)F)c2)cn1` [Exp 41, Nilotinib HCl], for which, in series [1] (setting [3]), the “Conc (mg/L) 5 min” value amounted to 0.6 mg/L and the “Conc (mg/L) 90 min” value turned out to be 0.9 mg/L. For the same compound, the “Conc (mg/L) 30 min” value in series [1] (concentration of nilotinib HCl, FeSSIF solution (pH 5), 30 minutes dissolution) was determined as 0.9 mg/L. In addition, the “% solubilized 30 min.” value in series [1] (nilotinib HCl, FeSSIF solution (pH 5), 30 minutes dissolution) is reported as 0.18%. Moreover, in series [1] (nilotinib HCl, FeSSIF solution (pH 5), Area Under the Curve during 90 minutes dissolution), the “AUC/90 min Mg/min/L” value was found to be 74.3 Mg/min/L.

For `Cc1cn(-c2cc(NC(=O)c3ccc(C)c(Nc4nccc(-c5cccnc5)n4)c3)cc(C(F)(F)F)c2)cn1` [Nilotinib], the AUC(0-t) in series [2] (beagle, dog, plasma, read-out: AUC0-24 hr) turned out to be 1000 ± 300 ng·h/mL. In series [2] (beagle, dog, plasma, read-out: T½ (converted)), the half-life is 3.3 ± 1.8 h. In series [2], this compound showed a Co of 511 ± 46 ng/mL.

`C#Cc1cccc(Nc2ncnc3cc(OCCOC)c(OCCOC)cc23)c1` [Exp 69, Erlotinib HCl]: in series [1] (setting [4]), the “Conc (mg/L) 5 min” value worked out at 156.8 mg/L and the “Conc (mg/L) 90 min” value turned out to be 196 mg/L. Besides, in series [1] (concentration of erlotinib HCl, FeSSIF solution (pH 5), 30 minutes dissolution), the “Conc (mg/L) 30 min” value amounted to 189.9 mg/L. In series [1] (erlotinib HCl, FeSSIF pH 5, 30 min dissolution), the “% solubilized 30 min.” value came to 19.0%. Also, the “AUC/90 min Mg/min/L” value in series [1] (erlotinib HCl, FeSSIF pH 5, during 90 min dissolution) was found to be 16303 Mg/min/L.
